# Read-outs that look alike come from different tables or passages of the source.
# Molecular target: T1, F508del (Homo sapiens, UniProt P13569, DEL508-508)
# T1 construct: expressed in transfected cells
# Assay: Protocol 2: FRET membrane potential optical assay (VIPR), identification of correction compounds
# Format: cell-based
# Summary of the method: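 Correction of the F508del trafficking defect is scored as forskolin (10 μM)/genistein (20 μM)-stimulated Cl^− efflux in NIH3T3 mouse fibroblasts after a 16 hr, 37° C. compound exposure. Depolarization was followed optically using voltage-sensing FRET dyes.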
# [1] = F508del CFTR modulator activity, compounds of Table 1, read-out: EC30
# [2] = Table 3, compounds of Table 1 as modulators of CFTR activity, protocol not stated
# T1 sequence (P13569 with tags, fused parts or gaps DEL508-508): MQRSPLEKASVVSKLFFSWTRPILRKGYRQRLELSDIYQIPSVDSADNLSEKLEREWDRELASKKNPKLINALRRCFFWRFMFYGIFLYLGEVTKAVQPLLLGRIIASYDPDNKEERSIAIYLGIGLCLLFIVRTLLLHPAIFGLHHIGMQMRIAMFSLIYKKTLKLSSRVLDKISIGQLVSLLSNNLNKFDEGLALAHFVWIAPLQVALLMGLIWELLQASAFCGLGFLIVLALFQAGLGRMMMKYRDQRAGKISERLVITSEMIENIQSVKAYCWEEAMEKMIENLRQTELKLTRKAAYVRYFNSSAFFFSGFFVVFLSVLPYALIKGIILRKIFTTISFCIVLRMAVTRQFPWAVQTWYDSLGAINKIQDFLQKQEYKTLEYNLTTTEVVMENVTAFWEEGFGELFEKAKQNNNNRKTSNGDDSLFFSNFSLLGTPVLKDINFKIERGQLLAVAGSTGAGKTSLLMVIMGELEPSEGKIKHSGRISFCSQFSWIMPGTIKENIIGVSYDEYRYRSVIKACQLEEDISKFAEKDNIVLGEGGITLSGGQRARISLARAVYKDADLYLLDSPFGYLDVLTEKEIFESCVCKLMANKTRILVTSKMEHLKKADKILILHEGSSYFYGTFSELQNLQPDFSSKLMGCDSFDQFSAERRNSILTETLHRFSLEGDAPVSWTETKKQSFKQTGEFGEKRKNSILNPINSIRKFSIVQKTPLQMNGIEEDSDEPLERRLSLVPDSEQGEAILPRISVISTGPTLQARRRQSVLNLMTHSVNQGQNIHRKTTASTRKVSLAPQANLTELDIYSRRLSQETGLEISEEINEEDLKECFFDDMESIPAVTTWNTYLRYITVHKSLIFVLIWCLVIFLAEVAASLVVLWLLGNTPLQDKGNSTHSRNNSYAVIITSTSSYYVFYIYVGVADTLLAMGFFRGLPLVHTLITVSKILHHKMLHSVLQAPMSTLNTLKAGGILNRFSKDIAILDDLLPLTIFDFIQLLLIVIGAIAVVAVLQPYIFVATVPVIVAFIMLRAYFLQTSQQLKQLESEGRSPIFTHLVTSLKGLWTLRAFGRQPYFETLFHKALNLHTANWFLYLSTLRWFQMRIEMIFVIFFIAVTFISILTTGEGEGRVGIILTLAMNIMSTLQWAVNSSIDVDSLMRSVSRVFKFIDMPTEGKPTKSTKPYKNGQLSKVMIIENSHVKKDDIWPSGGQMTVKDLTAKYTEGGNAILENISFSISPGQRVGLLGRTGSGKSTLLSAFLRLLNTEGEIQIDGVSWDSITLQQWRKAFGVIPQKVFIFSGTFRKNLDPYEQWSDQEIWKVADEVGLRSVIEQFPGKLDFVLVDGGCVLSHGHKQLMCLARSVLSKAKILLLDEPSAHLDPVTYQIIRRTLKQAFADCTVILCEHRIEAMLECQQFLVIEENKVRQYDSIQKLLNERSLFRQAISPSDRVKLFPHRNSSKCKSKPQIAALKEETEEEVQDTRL
EC30 [1],EC30 [2],SMILES
< 3000 nM,,"COc1cccc(OC)c1Oc1cccc(S(=O)(=O)NC(=O)c2cccnc2N2CC(C)CC2(C)C)n1 (centres unmarked) [Compound 2309, N—[[6-(2,6-dimethoxyphenoxy)-2-pyridyl]sulfonyl]-2-(2,2,4-trimethylpyrrolidin-1-yl)pyridine-3-carboxamide]"
,+++ (“+++” means <3 uM),"Cc1cccc(-c2ccc(C(=O)NS(=O)(=O)c3cccc(N)n3)c(Oc3c(C)cc(C)cc3C)n2)c1 [Compound 672, N-[(6-amino-2-pyridyl)sulfonyl]-6-(m-tolyl)-2-(2,4,6-trimethylphenoxy)pyridine-3-carboxamide]"
,++ (“++” means between 3 uM and 10 uM),"Cc1cc(C)c(CN2Cc3ccccc3C2C(=O)NS(=O)(=O)c2ccccn2)c(C)c1 (centres unmarked) [Compound 48, N-(2-pyridylsulfonyl)-2-[(2,4,6-trimethylphenyl)methyl]isoindoline-1-carboxamide]"
,+++ (“+++” means <3 uM),"Cc1cc(C)c(Oc2nn(C(C)(C)C)cc2C(=O)NS(=O)(=O)c2cccc(N)c2)c(C)c1 [Compound 325, N-(3-aminophenyl)sulfonyl-1-tert-butyl-3-(2,4,6-trimethylphenoxy)pyrazole-4-carboxamide]"
,++ (“++” means between 3 uM and 10 uM),"CC(C)Oc1ccc(-c2ccc(C(=O)NS(=O)(=O)c3cccc(N)n3)c(NC(C)c3ccccc3)n2)cn1 (centres unmarked) [Compound 766, N-[(6-amino-2-pyridyl)sulfonyl]-6-(6-isopropoxy-3-pyridyl)-2-(1-phenylethylamino)pyridine-3-carboxamide]"
,+++ (“+++” means <3 uM),"Cc1cc(C)c(Oc2nc(C)ccc2C(=O)NS(=O)(=O)c2cccc(NC(C)C)n2)c(C)c1 [Compound 482, N-[[6-(isopropylamino)-2-pyridyl]sulfonyl]-6-methyl-2-(2,4,6-trimethylphenoxy)pyridine-3-carboxamide]"
< 3000 nM,,"CC1CN(c2ncccc2C(=O)NS(=O)(=O)c2cccc(OCc3ccc4c(c3)OCO4)n2)C(C)(C)C1 (centres unmarked) [Compound 2169, N—[[6-(1,3-benzodioxol-5-ylmethoxy)-2-pyridyl]sulfonyl]-2-(2,2,4-trimethylpyrrolidin-1-yl)pyridine-3-carboxamide]"
< 3000 nM,,CCOCCOc1ccc(C(=O)NS(=O)(=O)c2cccnc2N)c(N2C[C@@H](C)CC2(C)C)n1 [Compound 2699]
< 3000 nM,,"Cc1ccc(-c2ccc(C(=O)NS(=O)(=O)c3cccc(N)n3)c(N3CC(C)CC3(C)C)n2)nc1NCC(C)C (centres unmarked) [Compound 2362, N-[(6-amino-2-pyridyl)sulfonyl]-6-[6-(isobutylamino)-5-methyl-2-pyridyl]-2-(2,2,4-trimethylpyrrolidin-1-yl)pyridine-3-carboxamide]"
< 3000 nM,,"COc1cc(-c2ccc(C(=O)NS(=O)(=O)c3cccnc3N)c(N3C[C@@H](C)CC3(C)C)n2)ccn1 [Compound 2646, N-[(2-amino-3-pyridyl)sulfonyl]-6-(2-methoxy-4-pyridyl)-2-[(4S)-2,2,4-trimethylpyrrolidin-1-yl]pyridine-3-carboxamide]"
< 3000 nM,,"CC1CN(c2ncccc2C(=O)NS(=O)(=O)c2cccc(OCc3cnn(-c4ccccc4)c3)n2)C(C)(C)C1 (centres unmarked) [Compound 2111, N—[[6-[(1-phenylpyrazol-4-yl)methoxy]-2-pyridyl]sulfonyl]-2-(2,2,4-trimethylpyrrolidin-1-yl)pyridine-3-carboxamide]"
,+++ (“+++” means <3 uM),"Cc1cc(C)c(Cn2nc(-c3cccc(C)c3F)cc2C(=O)NS(=O)(=O)c2cccc(N)c2)c(C)c1 [Compound 293, N-(3-aminophenyl)sulfonyl-5-(2-fluoro-3-methyl-phenyl)-2-[(2,4,6-trimethylphenyl)methyl]pyrazole-3-carboxamide]"
< 3000 nM,,CC1CN(c2ncccc2C(=O)NS(=O)(=O)c2cccc(Oc3cccc(C#N)c3)n2)C(C)(C)C1 (centres unmarked) [Compound 2725]

# More lines, now with the values behind:
SMILES,EC30 [1],EC30 [2]
"CC(C)COc1cc(F)cc(-c2ccc(C(=O)NS(=O)(=O)c3cccc(N)n3)c(N3CCC[C@@H]3c3ccccc3)n2)c1 [Compound 447, N-[(6-amino-2-pyridyl)sulfonyl]-6-(3-fluoro-5-isobutoxy-phenyl)-2-[(2R)-2-phenylpyrrolidin-1-yl]pyridine-3-carboxamide]",,+++ (“+++” means <3 uM)
"Cc1cc(C)c(Oc2nc(-c3cc(CO)ccc3F)ccc2C(=O)NS(=O)(=O)c2cccc(N)n2)c(C)c1 [Compound 727, N-[(6-amino-2-pyridyl)sulfonyl]-6-[2-fluoro-5-(hydroxymethyl)phenyl]-2-(2,4,6-trimethylphenoxy)pyridine-3-carboxamide]",,+ (“+” means greater than 10 uM)
"Cc1cc(C)c(Cn2c(C(=O)NS(=O)(=O)c3ccc(N)cc3)cc3ccccc32)c(C)c1 [Compound 134, N-(4-aminophenyl)sulfonyl-1-[(2,4,6-trimethylphenyl)methyl]indole-2-carboxamide]",,+++ (“+++” means <3 uM)
"C#Cc1ccc(COc2cccc(S(=O)(=O)NC(=O)c3cccnc3N3CC(C)CC3(C)C)n2)cc1 (centres unmarked) [Compound 2610, N—[[6-[(4-ethynylphenyl)methoxy]-2-pyridyl]sulfonyl]-2-(2,2,4-trimethylpyrrolidin-1-yl)pyridine-3-carboxamide]",< 3000 nM,
"CC(C)CCN(C)c1cccc(S(=O)(=O)NC(=O)c2cccnc2N2CC(C)CC2(C)C)n1 (centres unmarked) [Compound 2346, N—[[6-[isopentyl(methyl)amino]-2-pyridyl]sulfonyl]-2-(2,2,4-trimethylpyrrolidin-1-yl)pyridine-3-carboxamide]",< 3000 nM,
"Cc1ccnc(C)c1Oc1nc(C(C)(C)C)ccc1C(=O)NS(=O)(=O)c1cccc(N)n1 [Compound 460, N-[(6-amino-2-pyridyl)sulfonyl]-6-tert-butyl-2-[(2,4-dimethyl-3-pyridyl)oxy]pyridine-3-carboxamide]",,++ (“++” means between 3 uM and 10 uM)
CC1CN(c2ncccc2C(=O)NS(=O)(=O)c2cccc(OCCN)n2)C(C)(C)C1 (centres unmarked) [Compound 2742],3000 to 10000 nM,
"Cc1ccc(-c2ccc(C(=O)NS(=O)(=O)c3cccc(N)n3)c(N3CC(C)CC3(C)C)n2)c(C)c1 (centres unmarked) [Compound 614, N-[(6-amino-2-pyridyl)sulfonyl]-6-(2,4-dimethylphenyl)-2-(2,2,4-trimethylpyrrolidin-1-yl)pyridine-3-carboxamide]",,+++ (“+++” means <3 uM)
"Cc1cc(O)ccc1-c1ccc(C(=O)NS(=O)(=O)c2cccnc2N)c(N2C[C@@H](C)CC2(C)C)n1 [Compound 1999, N-[(2-amino-3-pyridyl)sulfonyl]-6-(4-hydroxy-2-methyl-phenyl)-2-[(4S)-2,2,4-trimethylpyrrolidin-1-yl]pyridine-3-carboxamide]",3000 to 10000 nM,
"COc1cc(F)c(-c2ccc(C(=O)NS(=O)(=O)c3cccnc3N)c(N3C[C@@H](C)CC3(C)C)n2)cc1F [Compound 2388, N-[(2-amino-3-pyridyl)sulfonyl]-6-(2,5-difluoro-4-methoxy-phenyl)-2-[(4S)-2,2,4-trimethylpyrrolidin-1-yl]pyridine-3-carboxamide]",< 3000 nM,
"Cc1cc(C)c(Oc2nc(C3CCOCC3)ccc2C(=O)NS(=O)(=O)c2cccc(N)n2)c(C)c1 [Compound 748, N-[(6-amino-2-pyridyl)sulfonyl]-6-tetrahydropyran-4-yl-2-(2,4,6-trimethylphenoxy)pyridine-3-carboxamide]",,++ (“++” means between 3 uM and 10 uM)
"Cc1cc(C)c(Oc2nc3c(C)cccc3cc2C(=O)NS(=O)(=O)c2cccc(N)n2)c(C)c1 [Compound 70, N-[(6-amino-2-pyridyl)sulfonyl]-8-methyl-2-(2,4,6-trimethylphenoxy)quinoline-3-carboxamide]",,+++ (“+++” means <3 uM)
"C[C@@H]1CC[C@H](C)N1c1nc(-c2cncc(OC3CCCC3)c2)ccc1C(=O)NS(=O)(=O)c1cccc(N)n1 [Compound 495, N-[(6-amino-2-pyridyl)sulfonyl]-6-[5-(cyclopentoxy)-3-pyridyl]-2-[(2S,5R)-2,5-dimethylpyrrolidin-1-yl]pyridine-3-carboxamide]",,++ (“++” means between 3 uM and 10 uM)
"C[C@@H]1CN(c2nc(C(C)(C)C)c(C3=CCN(C(=O)CC4CCCCC4)CC3)cc2C(=O)NS(=O)(=O)c2cccc(N)n2)C(C)(C)C1 [Compound 2596, N-[(6-amino-2-pyridyl)sulfonyl]-6-tert-butyl-5-[1-(2-cyclohexylacetyl)-3,6-dihydro-2H-pyridin-4-yl]-2-[(4S)-2,2,4-trimethylpyrrolidin-1-yl]pyridine-3-carboxamide]",< 3000 nM,
"CN=S(=O)(NC(=O)c1ccc(C(C)(C)C)nc1Oc1c(C)cc(C)cc1C)c1cccc(N)c1 (stereo not drawn) [Compound 568, N—[S-(3-aminophenyl)-N-methyl-sulfonimidoyl]-6-tert-butyl-2-(2,4,6-trimethylphenoxy)pyridine-3-carboxamide]",,+++ (“+++” means <3 uM)
"Cc1cc(C)c(Cn2nc(C(C)(C)C)cc2C(=O)NS(=O)(=O)c2ccc(O)cc2)c(C)c1 [Compound 269, 5-tert-butyl-N-(4-hydroxyphenyl)sulfonyl-2-[(2,4,6-trimethylphenyl)methyl]pyrazole-3-carboxamide]",,+++ (“+++” means <3 uM)
"C[C@@H]1CN(c2nc(-c3ccc(N(C)C)nc3)ccc2C(=O)NS(=O)(=O)c2cccnc2N)C(C)(C)C1 [Compound 2319, N-[(2-amino-3-pyridyl)sulfonyl]-6-[6-(dimethylamino)-3-pyridyl]-2-[(4S)-2,2,4-trimethylpyrrolidin-1-yl]pyridine-3-carboxamide]",3000 to 10000 nM,
"Cc1cc(C)c(Oc2nc(-c3ccc(Cl)c(OCC(C)C)c3)ccc2C(=O)NS(=O)(=O)c2cccc(N)n2)c(C)c1 [Compound 238, N-[(6-amino-2-pyridyl)sulfonyl]-6-(4-chloro-3-isobutoxy-phenyl)-2-(2,4,6-trimethylphenoxy)pyridine-3-carboxamide]",,+++ (“+++” means <3 uM)
"CC1CN(c2ncccc2C(=O)NS(=O)(=O)c2cccc(N3CCOC(C)C3)n2)C(C)(C)C1 (centres unmarked) [Compound 2324, N—[[6-(2-methylmorpholin-4-yl)-2-pyridyl]sulfonyl]-2-(2,2,4-trimethylpyrrolidin-1-yl)pyridine-3-carboxamide]",3000 to 10000 nM,

# Source: patent publication US10758534B2 (Vertex Pharmaceuticals Incorporated, priority 2014, dated 2020)
